Data on three molecules can be found in patent US9637471B2, “Hydroxyindalpine derivatives and their medical use” (Technische Universitat Munchen, priority 2013, dated 2017).

In data set [1] the test system is circular muscle strips from the guinea pig stomach. Put plainly: Nerve mediated muscle responses to electrical field stimulation (EFS) in circular muscle strips, organ bath. Format: cell-based. To be noted: 10 μM in organ bath, EFS after 20 min. The method, then: The effects of 5-BOIP and homo-5-BOIP were tested in tissue preparations from the guinea pig stomach. After sacrificing the guinea pigs, the stomach was removed and immediately placed in ice-cold oxygenated Krebs solution. The stomach was opened along the greater curvature, thoroughly washed and pinned mucosal side up in Sylgard-coated Petri dishes. The mucosa was then carefully removed. Muscle strips (1.5 cm^2) were cut parallel to the circular muscle and mounted in 25 ml organ baths where they were maintained in oxygenated Krebs solution at 37° C. One edge of each muscle strip was attached to an isometric tension transducer (PowerLab, AD Instruments, Spechbach, Germany).
After mounting in the organ baths, tissues were equilibrated with a preload set at 15 mN for 45 min. Then, electrical field stimulations (EFS) were performed (constant current, 100 mA, pulse frequency 10 Hz, pulse width of 0.5 ms, 10 s). With the chosen parameters for the EFS, only the neuronal tissue in the preparation was stimulated without having a direct effect on the smooth muscle. […]
After reaching stable responses to the EFS, 5-BOIP and homo-5-BOIP were added to the organ baths at a final concentration of 10 μM. […] The responses to the EFS under control conditions and in the presence of 5-BOIP or homo-5-BOIP were analyzed later.

The next data set relates to 5-HT1P receptor. Put plainly: Neuronal tissue assay: voltage-sensitive dye neuroimaging of human submucous plexus preparations. It is filed as cell-based. As to the method: The effect of 5-BOIP was tested on freshly dissected submucous plexus preparations from surgical resections of human intestine. Samples were taken from macroscopically unaffected areas. Procedures were approved by the ethics committees of the Technical University Munich (1748/07 and 2595/09). Segments were dissected in ice cold Krebs solution to obtain mucosa/submucosa preparations containing the inner submucous plexus preparations for the imaging experiments.
In order to image the activity of enteric neurons using voltage sensitive dyes, the human submucous plexus preparations were placed into a recording chamber which was continuously perfused at 37° C. with oxygenated Krebs solution containing 117 mM NaCl, 4.7 mM KCl, 1.2 mM MgCl2, 1.2 mM NaH2PO4, 20 mM NaHCO3, 2.5 mM CaCl2, 11 mM glucose (pH 7.4). The neuroimaging set-up allowed to monitor membrane potential changes and changes in intracellular Ca^2+ [Ca]i transients in all cells of a given ganglion. To study membrane potential changes, individual ganglia were stained with the voltage-sensitive dye Di-8-ANEPPS (20 μM; Molecular Probes, Eugene, Oreg., USA) via intraganglionic application through a microejection pipette.
The imaging experiments were conducted on an inverted microscope (Zeiss Axio Observer.A1; Munich, Germany) equipped with the NeuroCCD system, consisting of a fast CCD camera (80×80 pixels) and the Neuroplex software for data acquisition and analysis (RedShirtImaging, Decatur, Ga., USA). To detect Di-8-ANEPPS a modified Cy3 filterset (545±15 nm excitation, 565 nm dichroic mirror, 580 nm barrier; Ahf Analysentechnik, Tübingen, Germany) was used. A green LED (LE T S2W, Osram, Munich, Germany) was used to excite Di-8-ANEPPS. Visualization of the ganglia and recording of signals were done with a ×100 or ×40 objective (NA=1.35, Olympus, Hamburg, Germany). The imaging set-up allowed to measure relative changes in the fluorescence (ΔF/F), which is for Di-8-ANEPPS linearly related to changes in the membrane potential. Frame rate to detect action potentials was 1 kHz. The overlay of signals and ganglion images allowed the analysis of the responses of individual cells.
5-BOIP was prepared at a stock solution of 100 mM. For controlled local application fine glass capillaries were filled with 50 μM 5-BOIP and positioned just above a ganglion. 5-BOIP was microejected for 400 ms via pressure pulse onto the ganglion. […] Since G protein coupled receptor activation takes several seconds, the recordings were started after a period of 2 s. In preliminary experiments it was verified that there was no immediate effect of 5-BOIP that would begin with the ejection application or directly thereafter.
The specificity of 5-BOIP effects was tested against the 5-HT1 antagonist 5-hydroxytryptophan dipeptide (5-HTP-DP). […]

Data set [2] in a line: Retention of activity after storage (chemical stability). The following applies: storage for 15 months as a solid at 4° C. or in solution frozen at −20° C. Format: physicochemical.
A further data set has as its system mouse isolated colon. To be noted: cited from earlier work.

Regarding `c1ccc(COc2ccc3[nH]cc(CCC4CCNCC4)c3c2)cc1` [5-BOIP, 5-(benzyloxy)-3-(2-(piperidin-4-yl)ethyl)-1H-indole], the “effect on the "on contraction" in response to the EFS” value in data set [1] was “clearly reduced”. Further, the “action potential (spike) frequency” value with 5-HT1P receptor (5-BOIP alone, 50 μM in capillary microejected 400 ms onto ganglion, median (10%/90%)) was 1.6 (1.0/2.1) Hz. Further, the “effect on human enteric nerve cells when applied to the ganglia” value in the data set on 5-HT1P receptor (5-BOIP applied to ganglia, human submucous plexus) is on record as “induces action potentials”. Also, the “action potential (spike) frequency in presence of 5-HT1P receptor antagonist 5-HTP-DP” value in the data set with 5-HT1P receptor (5-BOIP during 20 min bath application of 10 μM 5-HTP-DP, median (10%/90%)) was 0 (0/0.5) Hz. Moreover, in the data set with 5-HT1P receptor (5-BOIP freshly added after washout of 5-HTP-DP, median (10%/90%)), the “action potential (spike) frequency after washing out the antagonist 5-HTP-DP” value is 1.0 (0.5/1.6) Hz. The activity after storage entry in data set [2] is reported as “retains activity”.
Take `Oc1ccc2[nH]cc(CCC3CCNCC3)c2c1` [5-OHIP, 5-hydroxyindalpine]: the “effect on threshold pressure required to trigger the peristaltic reflex” value in the data set on mouse isolated colon was “reduce the threshold pressure”. Moreover, in the data set on mouse isolated colon (concentration dependent), the effect on peristalsis result is reported as “accelerate peristalsis”. Further, the activity after storage entry in data set [2] is reported as “would lose its activity”.
As to `c1ccc(COc2ccc3[nH]cc(CCCC4CCNCC4)c3c2)cc1` [homo-5-BOIP, 5-(benzyloxy)-3-(3-[piperidin-4-yl]propyl)-1H-indole], the “effect on the "on contraction" in response to the EFS” value in data set [1] is “clearly reduced”.
